Here are results for two compounds from patent US5641746A, “Animal model for AIDS” (Rutgers State University of New Jersey, priority 1994, dated 1997).

Data set [1] has as its system intracellular free calcium. To be noted: cited from earlier work.
Data set [2] deals with gp120 binding to brain tissue. As to conditions: in vitro; cited from earlier work.
For another data set, the system named is rats. Description: Intrathecal VIP in rats. It counts as in vivo, rat. The method, then: Each animal was treated with VIP or Ringer's solution in a counterbalanced fashion. […] At a dose of 25 ug VIP/5 ul (5 ug/ul), there were 4 of 6 documented deaths. At 60 ug VIP/5 ul (12 ug/ul), there were 3 of 5 documented deaths.
The test system of data set [3] is neurotoxic effects of gp120. To be noted: on cells and in animals; cited from earlier work.
The test system of the next data set is HIV. To be noted: in vitro; cited from earlier work.

For the compound `COCCOC(=O)C1=C(C)NC(C)=C(C(=O)OC(C)C)C1c1cccc([N+](=O)[O-])c1` (stereo not shown) [nimodipine], in data set [1], the “Effect on gp 120-CD4 induced increase of intracellular free calcium” value is “antagonize this effect”.
Turning to Vasoactive Intestinal Peptide [VIP], the “Effect on binding of gp120” value in data set [2] is given as “inhibit”. Moreover, the Documented deaths is given as 4 of 6 in the data set with rats (25 ug VIP/5 ul (5 ug/ul) IT) and 3 of 5 in the data set with rats (60 ug VIP/5 ul (12 ug/ul) IT). Also, in the data set on rats (IT VIP), the Morbidity entry is on record as “morbidity was observed”. In addition, the “Symptoms shown by all VIP-treated animals” value with rats (IT VIP, all doses) is “diarrhea, weight loss, monoparesis, lower limb deficits and mucous secretions”. Further, the “Concentration shown to be effective to induce the desired symptoms” value with rats (IT, rats) is 2.55 to 12 µg/µL. Also, the “AIDS-like symptoms in addition to neurological deficit” value with rats (VIP 25 ug/5 ul (5 ug/ul) IT) is “diarrhea, hind limb rigidity and damage to spinal tissue”. Besides, in data set [3], the “Effect on the neurotoxic effects of gp120” value is given as “potently inhibit”. Also, the “Effect on HIV replication in cell culture” value in the data set on HIV is reported as “inhibit”.
